Measured values published in patent US12202816B2 (CALLIDITAS THERAPEUTICS SUISSE SA, priority 2018, dated 2025).
pKi: −log10 of the molar value.

Molecular target: hNOX enzymes
Assay: ROS production measurement on hNOX membranes (Amplex Red fluorescence assay, assay 1)
Type: biochemical, human
Settings: membranes from CHO or HEK cells overexpressing hNox enzymes; Nox isoform not stated; non linear regression; read-out: Nox inhibitory constant Ki
Description: Reactive oxygen species (ROS) production generated by hNOX enzymes was measured by fluorescence in both cellular and membrane-based assays using the Amplex® Red reagent. In the presence of horseradish peroxidase (HRP), the Amplex® Red reagent (10-acetyl-3,7-dihydroxyphenoxazine, AR), which is a colorless and nonfluorescent derivative of dihydroresorufin, reacts with H2O2 with a 1:1 stoichiometry to produce highly fluorescent resorufin at an excitation and emission wavelengths of 544 nm and 590 nm, respectively.
Membranes from CHO or HEK cells overexpressing hNox enzymes were prepared as previously described (Palicz et al., 2001, J. Biol. Chem, 76, 3090). After resuspension in sonication buffer (11% sucrose, 120 mM NaCl, 1 mM EGTA in PBS, pH 7.4), cells were broken by sonication and centrifuged (200 g, 10 min). The supernatant was layered onto a 17/40% (w/v) discontinuous sucrose gradient and centrifuged (150,000 g for 30 min). Membrane fractions were collected from the 17/40% interface, aliquoted in 10 μl samples and were stored at −80° C. Protein concentration was determined with Bradford reagent. Flavin Adenine Dinucleotide (FAD) (catalog #F6625-500MG), MgCl2 (catalog #M8266-100G), Phosphatidic Acid (PA) (catalog #P3591-50MG) were purchased from Sigma-Aldrich. Horseradish peroxidase (HRP) (catalog #10108090001) was purchased from Roche. NADPH (catalog #A1395, 0500) was purchased from Applichem. Amplex red (AR) (catalog #A22177) was purchased from Invitrogen. 96 well polypropylene and black plates were purchased from Milian (catalog #055529 and #055218, respectively). FLUOstar OPTIMA microplate reader was supplied by BMG Labtech (Germany). Zephyr® Compact Liquid Handling Workstation was supplied by PerkinElmer (Germany).
Assay 1: ROS Production Measurement on hNOX Membranes
All Solutions were placed on ice and protected from light. The final concentration in the 1× hNOX membrane fluorescent assay buffer were PBS pH7, 6 μM FAD, 15 μM PA, 1 mM MgCl2, 12.5 μM AR, 0.02 u/ml, 125 ng membranes, 1.5 μg of cofactors and 30 μM NADPH. The NADPH was dissolved in water at a concentration of 12 mM and was transferred in a metal transfer plate kept at 4° C. The NADPH was added to the assay plate to initiate the reaction just before the measurement.
Serial dilution (1:3, 10 serial dilution) of the compounds was performed in 100% DMSO in 96 well polypropylene plate—Row B—H Column 1-10, Row A, Column 1-10 contained reference compound. Starting concentration was 10^−2 M (10 mM). Final concentration in assay was 10^−4 M (100 μM). Compounds were diluted twice in PBS buffer by transferring 30 μl/well of PBS into 30 μl/well compounds sample in DMSO using Zephyr® Compact Liquid Handling Workstation. Control wells-columns 1 and 12-contained 60 μl DMSO in 50% PBS pH7.
Reaction mixture is dispensed using Zephyr® Compact Liquid Handling Workstation. 90 μl of mix with membrane were dispensed into 96 well black plates—Column 2-11, Column 1 Row A-D, Column 12 Row E-H. 90 μl of control mix were dispensed into assay plate—Column 1 Row E-H, Column 12 Row A-D, which are wells for measuring background signal. 2 μl of compounds were dispensed into each well of assay plate using Zephyr® Compact Liquid Handling Workstation. The reaction mixture with compounds was incubated in assay plates for 20 min at 37° C. in a Titramax microplate incubator with gentle agitation. 10 μl of NADPH is dispensed to the assay plate. Fluorescence reading was recorded with the FLUOstar OPTIMA microplate reader for 10 min at 37° C. (8 cycles, 1 cycle duration 55 sec).
The Table 14 below summarizes the inhibition of NOX activity as measured by the above described assay 1 and expressed by their inhibitory constant calculated by non linear regression analysis using GraphPad Prism Software (GraphPad Software Co., San Diego, CA): […]

SMILES	pKi
COc1cncc(-c2ccc3[nH]c(-c4ccnc(C5CC5)c4)cc3c2)c1 [Example 19, 2-(2-cyclopropylpyridin-4-yl)-5-(5-methoxypyridin-3-yl)-1H-indole]	6.64
Cc1cc(-c2cc3cc(-c4ccc5[nH]c(C)nc5c4)ccc3[nH]2)ccn1 [Example 12, 2-methyl-5-(2-(2-methylpyridin-4-yl)-1H-indol-5-yl)-1H-benzo[d]imidazole]	6.23
c1ccc2c(-c3ccc4[nH]c(-c5ccncc5)cc4c3)ccnc2c1 [Example 101]	6.52
COc1cc(-c2ccc3[nH]c(-c4ccnc(C)c4)cc3c2)cnc1OCc1ccccc1 [Example 83]	6.18
CN(C)c1cc(-c2cc3cc(-c4ccnc5ccc(F)cc45)ccc3[nH]2)ccn1 [Example 93, 4-(5-(6-fluoroquinolin-4-yl)-1H-indol-2-yl)-N,N-dimethylpyridin-2-amine]	7.59
COc1cncc(-c2cc3cc(-c4ccc(N5CCC56COC6)nc4)[nH]c3cc2Cl)c1 [Example 32, 1-(5-(6-chloro-5-(5-methoxypyridin-3-yl)-1H-indol-2-yl)pyridin-2-yl)-6-oxa-1-azaspiro[3.3]heptane]	7.57
COc1cncc(-c2ccc3[nH]c(-c4csc(C)n4)cc3c2)c1 [Example 18, 4-(5-(5-methoxypyridin-3-yl)-1H-indol-2-yl)-2-methylthiazole]	6.02
COc1cncc(-c2ccc3[nH]c(-c4ccnc(N5CCC5)c4)cc3c2)c1 [Example 13, 2-(2-(azetidin-1-yl)pyridin-4-yl)-5-(5-methoxypyridin-3-yl)-1H-indole]	6.50
COc1cncc(-c2cc3cc(-c4ccc(C(O)C5COC5)nc4)[nH]c3cc2Cl)c1 (stereo not shown) [Example 54, (5-(6-chloro-5-(5-methoxypyridin-3-yl)-1H-indol-2-yl)pyridin-2-yl)(oxetan-3-yl)methanol]	6.38
COc1cncc(-c2ccc3[nH]c(-c4ccc(C5COC5)nc4)cc3c2)c1 [Example 27, 5-(5-methoxypyridin-3-yl)-2-(6-(oxetan-3-yl)pyridin-3-yl)-1H-indole]	6.83
COc1cncc(-c2ccc3[nH]c(-c4ccnc(C)c4)cc3c2Cl)c1 [Example 65]	6.91
COc1cncc(-c2cc3cc(-c4ccc(N5CCOCC5)nc4)n(C)c3cc2Cl)c1 [Example 112]	6.77
COc1cncc(-c2cc3cc(-c4ccc(=O)n(C)c4)[nH]c3cc2Cl)c1 [Example 57, 5-(6-chloro-5-(5-methoxypyridin-3-yl)-1H-indol-2-yl)-1-methylpyridin-2(1H)-one]	6.85
COc1cncc(-c2cc3cc(-c4ccnc(N5CCC56COC6)c4)[nH]c3cc2Cl)c1 [Example 33, 1-(4-(6-chloro-5-(5-methoxypyridin-3-yl)-1H-indol-2-yl)pyridin-2-yl)-6-oxa-1-azaspiro[3.3]heptane]	7.44
Clc1cncc(-c2cc3cc(-c4ccc(N5CCOCC5)nc4)[nH]c3cc2Cl)c1 [Example 62]	6.87
Cc1cc(-c2cc3cc(-c4cncc(N(C)C)c4)ccc3[nH]2)ccn1 [Example 9, N,N-dimethyl-5-(2-(2-methylpyridin-4-yl)-1H-indol-5-yl)pyridin-3-amine]	6.09
COc1cncc(-c2ccc3[nH]c(-c4ccnc(OC)c4)cc3c2)c1 [Example 14, 5-(5-methoxypyridin-3-yl)-2-(2-methoxypyridin-4-yl)-1H-indole]	7.39
COc1cncc(-c2cc3cc(-c4cnc5c(c4)OCCN5C)[nH]c3cc2Cl)c1 [Example 53, 7-(6-chloro-5-(5-methoxypyridin-3-yl)-1H-indol-2-yl)-4-methyl-3,4-dihydro-2H-pyrido[3,2-b][1,4]oxazine]	7.64
COc1cc(-c2ccc3[nH]c(-c4ccnc(C)c4)cc3c2)ccn1 [Example 1, 5-(2-methoxypyridin-4-yl)-2-(2-methylpyridin-4-yl)-1H-indole]	6.31
Cc1cc(-c2ccc3[nH]c(-c4ccc(N(C)C)nc4)cc3c2)ccn1 [Example 29, N,N-dimethyl-5-(5-(2-methylpyridin-4-yl)-1H-indol-2-yl)pyridin-2-amine]	6.69

SMILES	pKi
COc1cncc(-c2ccc3[nH]c(-c4ccnc(N5CCOCC5)c4)cc3c2)c1 [Example 23]	6.53
Clc1cc2[nH]c(-c3ccc(N4CCOCC4)nc3)cc2cc1-c1cncc2sccc12 [Example 89]	6.99
COc1cncc(-c2ccc3[nH]c(-c4ccnc(N5CC(O)C5)c4)cc3c2)c1 [Example 20, 1-(4-(5-(5-methoxypyridin-3-yl)-1H-indol-2-yl)pyridin-2-yl)azetidin-3-ol]	6.80
Cc1cc(-c2cc3cc(-c4ccnc(N)c4)ccc3[nH]2)ccn1 [Example 5, 4-(2-(2-methylpyridin-4-yl)-1H-indol-5-yl)pyridin-2-amine]	6.46
COc1cncc(-c2cc3cc(-c4ccc(N5CCS(=O)(=O)CC5)nc4)[nH]c3cc2Cl)c1 [Example 49, 4-(5-(6-chloro-5-(5-methoxypyridin-3-yl)-1H-indol-2-yl)pyridin-2-yl)thiomorpholine 1,1-dioxide]	6.98
COc1cncc(-c2ccc3[nH]c(-c4ccncn4)cc3c2)c1 [Example 109]	6.09
COCCn1c(-c2ccncc2)cc2cc(-c3ccncc3)ccc21 [Example 113, 1-(2-methoxyethyl)-2,5-di(pyridin-4-yl)-1H-indole]	6.01
Cc1cc(-c2ccc3[nH]c(-c4ccc(N5CCOCC5)nc4)cc3c2)ccn1 [Example 26]	6.66
COc1cncc(-c2ccc3[nH]c(-c4ccnc(C)n4)cc3c2)c1 [Example 16, 5-(5-methoxypyridin-3-yl)-2-(2-methylpyrimidin-4-yl)-1H-indole]	6.18
COc1cncc(-c2ccc3c(c2)cc(-c2ccnc(C)c2)n3C(C)C)c1 [Example 111, 1-isopropyl-5-(5-methoxypyridin-3-yl)-2-(2-methylpyridin-4-yl)-1H-indole]	6.27
Cc1cc(-c2cc3cc(-c4ccnc(N5CCC56COC6)c4)[nH]c3cc2Cl)ccn1 [Example 34, 1-(4-(6-chloro-5-(2-methylpyridin-4-yl)-1H-indol-2-yl)pyridin-2-yl)-6-oxa-1-azaspiro[3.3]heptane]	7.03
Cc1cc(-c2cc3cc(-c4cncc(OCC5CC5)c4)ccc3[nH]2)ccn1 [Example 81]	6.54
COc1cncc(-c2cc3cc(-c4ccc(N5CC(C(=O)O)C5)nc4)[nH]c3cc2Cl)c1 [Example 39, 1-(5-(6-chloro-5-(5-methoxypyridin-3-yl)-1H-indol-2-yl)pyridin-2-yl)azetidine-3-carboxylic acid]	6.46
Fc1ccc2nccc(-c3cc4cc(-c5ccc(N6CCOCC6)nc5)[nH]c4cc3Cl)c2c1 [Example 90]	6.69
COc1cncc(-c2ccc3[nH]c(-c4cncc(F)c4)cc3c2)c1 [Example 24, 2-(5-fluoropyridin-3-yl)-5-(5-methoxypyridin-3-yl)-1H-indole]	6.51
COc1cncc(-c2cc3cc(-c4ccnc(C)c4)[nH]c3cc2C)c1 [Example 68]	6.39
Cc1c(-c2ccncc2)ccc2[nH]c(-c3ccncc3)cc12 [Example 69]	6.22
COc1cncc(-c2ccc3c(cc(-c4cnc5c(c4)OCCN5C)n3C)c2Cl)c1 [Example 119]	6.65
Cc1cc(-c2cc3cc(-c4cncc(F)c4)ccc3[nH]2)ccn1 [Example 6, 5-(5-fluoropyridin-3-yl)-2-(2-methylpyridin-4-yl)-1H-indole]	6.12
COc1cncc(-c2cc(Cl)c3[nH]c(-c4ccc(N5CCOCC5)nc4)cc3c2)c1 [Example 59]	6.26
